Laboratory results published in ChEMBL document CHEMBL1800002, “Indazole derivatives as novel bradykinin B1 receptor antagonists” (Bioorg Med Chem Lett, 2010).

Experiments:
[1] = molecular target: Cannabinoid receptor 2 (Homo sapiens, UniProt P34972); assay: Displacement of radioligand from human CB2 receptor expressed in CHO cells; assay type: cell-based
[2] = Half life in Sprague-Dawley rat at 10 mg/kg, po or 2 mg/kg, iv; assay type: ADME, organism-based; conditions: in vivo
[3] = Oral bioavailability in Sprague-Dawley rat at 10 mg/kg; assay type: ADME, organism-based; conditions: in vivo
[4] = molecular target: ATP-dependent translocase ABCB1 (Homo sapiens, UniProt P08183); assay: Drug transport assessed as MDR1 -mediated transcellular transport ratio by P-gp transport assay; assay type: ADME
[5] = Clearance in Mongrel dog at 3 mg/kg, po or 1 mg/kg, iv; assay type: ADME, organism-based, Canis lupus familiaris; conditions: in vivo
[6] = Half life in Mongrel dog at 3 mg/kg, po or 1 mg/kg, iv; assay type: ADME, organism-based, Canis lupus familiaris; conditions: in vivo
[7] = Apparent passive permeability coefficient by cell based assay; assay type: ADME
[8] = Clearance in Sprague-Dawley rat at 10 mg/kg, po or 2 mg/kg, iv; assay type: ADME, organism-based; conditions: in vivo
[9] = tested on: Liver microsomes; assay: Stability in human liver microsomes; assay type: ADME, Microsome

Cannabinoid receptor 2, sequence (P34972 whole entry): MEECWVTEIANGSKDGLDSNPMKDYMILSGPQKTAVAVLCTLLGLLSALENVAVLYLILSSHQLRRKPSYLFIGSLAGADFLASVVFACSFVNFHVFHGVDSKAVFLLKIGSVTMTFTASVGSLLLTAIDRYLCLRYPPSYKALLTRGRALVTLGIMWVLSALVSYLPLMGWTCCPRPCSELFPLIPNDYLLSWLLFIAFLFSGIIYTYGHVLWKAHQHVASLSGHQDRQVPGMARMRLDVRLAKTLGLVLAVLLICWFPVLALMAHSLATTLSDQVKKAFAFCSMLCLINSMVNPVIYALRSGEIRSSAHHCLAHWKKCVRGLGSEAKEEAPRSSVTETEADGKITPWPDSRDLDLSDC
ATP-dependent translocase ABCB1, sequence (P08183 whole entry): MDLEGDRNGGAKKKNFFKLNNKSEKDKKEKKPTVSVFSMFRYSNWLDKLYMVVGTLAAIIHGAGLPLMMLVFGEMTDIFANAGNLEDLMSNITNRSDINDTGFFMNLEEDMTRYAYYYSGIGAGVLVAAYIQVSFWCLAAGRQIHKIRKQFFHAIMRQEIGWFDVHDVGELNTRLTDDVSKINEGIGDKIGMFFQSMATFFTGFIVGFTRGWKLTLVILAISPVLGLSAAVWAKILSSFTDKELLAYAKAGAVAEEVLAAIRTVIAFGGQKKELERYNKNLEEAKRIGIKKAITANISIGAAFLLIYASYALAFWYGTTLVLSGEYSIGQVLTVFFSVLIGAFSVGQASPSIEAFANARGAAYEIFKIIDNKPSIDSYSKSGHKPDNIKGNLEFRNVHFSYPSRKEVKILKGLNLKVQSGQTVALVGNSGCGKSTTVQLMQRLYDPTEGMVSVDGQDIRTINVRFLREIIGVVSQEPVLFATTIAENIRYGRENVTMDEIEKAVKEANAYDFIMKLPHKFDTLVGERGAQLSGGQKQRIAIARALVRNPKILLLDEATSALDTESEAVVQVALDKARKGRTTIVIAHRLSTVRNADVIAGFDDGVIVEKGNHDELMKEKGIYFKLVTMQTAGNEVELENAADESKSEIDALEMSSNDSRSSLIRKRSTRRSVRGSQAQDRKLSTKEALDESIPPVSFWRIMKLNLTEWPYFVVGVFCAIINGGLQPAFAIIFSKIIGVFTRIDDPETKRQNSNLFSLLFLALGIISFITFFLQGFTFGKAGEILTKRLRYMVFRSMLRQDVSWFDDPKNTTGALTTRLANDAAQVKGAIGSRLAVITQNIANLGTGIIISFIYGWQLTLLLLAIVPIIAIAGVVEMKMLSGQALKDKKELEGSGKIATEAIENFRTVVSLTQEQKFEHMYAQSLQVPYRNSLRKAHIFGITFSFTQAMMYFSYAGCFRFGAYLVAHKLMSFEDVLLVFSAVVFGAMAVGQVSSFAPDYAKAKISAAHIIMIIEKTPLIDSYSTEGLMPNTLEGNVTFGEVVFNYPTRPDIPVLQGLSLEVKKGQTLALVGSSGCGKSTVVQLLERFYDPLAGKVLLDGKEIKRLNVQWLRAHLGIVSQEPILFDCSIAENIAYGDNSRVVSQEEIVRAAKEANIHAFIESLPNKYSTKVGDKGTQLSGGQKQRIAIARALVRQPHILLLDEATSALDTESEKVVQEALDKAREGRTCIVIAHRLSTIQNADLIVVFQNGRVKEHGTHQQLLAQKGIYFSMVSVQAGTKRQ

Q: For COc1cc(C(=O)NC2(C(=O)N[C@H](C)c3ccc(-n4[nH]c(=O)c5ccccc54)cc3F)CC2)on1, which Ki [1] is on record?
A: The Ki was over 10 µM.

Q: Which half-life [2] does the source give for C[C@@H](NC(=O)C1(NC(=O)c2cncc(Br)c2)CC1)c1ccc(-n2nc(Cl)c3ccccc32)cc1F here?
A: The half-life was 3.1 h.

Q: And the bioavailability [3]?
A: The bioavailability was 24%.

Q: What about the Ratio [4] of the same compound?
A: Its Ratio is 2.3.

Q: And the clearance [5]?
A: The clearance was 3.8 mL/min/kg.

Q: What about the half-life [6] of the same compound?
A: Its half-life is 7.6 h.

Q: What about the Papp [7] of the same compound?
A: The Papp was 13 ×10⁻⁶ cm/s.

Q: What about the clearance [8] of the same compound?
A: Its clearance is 2.5 mL/min/kg.

Q: Which Ratio [4] does the source give for C[C@@H](NC(=O)C1(NC(=O)c2cncs2)CC1)c1ccc(-n2nc(Cl)c3ccccc32)cc1F here?
A: The Ratio was 2.8.

Q: And the clearance [5]?
A: The clearance was 1.1 mL/min/kg.

Q: And the half-life [6]?
A: Its half-life is 4.3 h.

Q: And the Papp [7]?
A: The Papp was 19 ×10⁻⁶ cm/s.

Q: For C[C@@H](NC(=O)C1(NC(=O)c2ccc(Br)nc2)CC1)c1ccc(-n2nc(Cl)c3ccccc32)cc1F, which Ratio [4] is on record?
A: Its Ratio is 2.2.

Q: And the clearance [5]?
A: The clearance was 2.6 mL/min/kg.

Q: What about the half-life [6] of the same compound?
A: The half-life was 7.1 h.

Q: And the Papp [7]?
A: The Papp was 8.2 ×10⁻⁶ cm/s.

Q: What does the source list for C[C@@H](NC(=O)C1(NC(=O)c2cn[nH]c2)CC1)c1ccc(-n2nc(Cl)c3ccccc32)cc1F?
A: Ratio [4]: 55.6; Stability [9]: Stable; Papp [7]: 19 ×10⁻⁶ cm/s

Q: For Cc1cncc(C(=O)NC2(C(=O)N[C@H](C)c3ccc(-n4nc(Cl)c5ccccc54)cc3F)CC2)c1, which Ratio [4] is on record?
A: The Ratio was 1.9.

Q: What about the clearance [5] of the same compound?
A: The clearance was 4.3 mL/min/kg.

Q: What about the half-life [6] of the same compound?
A: The half-life was 2.6 h.

Q: What about the Papp [7] of the same compound?
A: Its Papp is 22 ×10⁻⁶ cm/s.

Q: Which Ki [1] does the source give for COc1cc(C(=O)NC2(C(=O)N[C@H](C)c3ccc(-n4nc(Br)c5ccccc54)cc3F)CC2)on1 here?
A: Its Ki is over 10 µM.

Q: Which results are given for C[C@@H](NC(=O)C1(NC(=O)c2cnccn2)CC1)c1ccc(-n2nc(Cl)c3ccccc32)cc1F?
A: Ratio [4]: 1.6; Papp [7]: 30 ×10⁻⁶ cm/s

Q: Which Ki [1] does the source give for COc1cc(C(=O)NC2(C(=O)N[C@H](C)c3ccc(-n4nc(C)c5ccccc54)cc3F)CC2)on1 here?
A: Its Ki is over 10 µM.

Q: With COC(=O)c1c(F)cccc1-c1ccc(CNC(=O)C2(NC(=O)C(F)(F)F)CC2)c(F)c1 as the compound, how does the Ratio [4] read?
A: The Ratio was 4.1.

Q: Which results are given for C[C@@H](NC(=O)C1(NC(=O)c2ccnnc2)CC1)c1ccc(-n2nc(Cl)c3ccccc32)cc1F?
A: Ratio [4]: 29.4; Papp [7]: 25 ×10⁻⁶ cm/s

Q: Which Ki [1] does the source give for CCc1nn(-c2ccc([C@@H](C)NC(=O)C3(NC(=O)c4cc(OC)no4)CC3)c(F)c2)c2ccccc12 here?
A: The Ki was over 10 µM.

Q: For C[C@@H](NC(=O)C1(NC(=O)c2cncc(O)c2)CC1)c1ccc(-n2nc(Cl)c3ccccc32)cc1F, which Ratio [4] is on record?
A: The Ratio was 89.

Q: What about the Papp [7] of the same compound?
A: The Papp was 18 ×10⁻⁶ cm/s.

Q: For COc1cc(C(=O)NC2(C(=O)N[C@H](C)c3ccc(-n4nc(-c5ccccc5)c5ccccc54)cc3F)CC2)on1, which Ki [1] is on record?
A: Its Ki is over 10 µM.

Q: For Cc1nnsc1C(=O)NC1(C(=O)N[C@H](C)c2ccc(-n3nc(Cl)c4ccccc43)cc2F)CC1, which Ratio [4] is on record?
A: The Ratio was 2.3.

Q: And the clearance [5]?
A: The clearance was 9.6 mL/min/kg.

Q: And the half-life [6]?
A: The half-life was 2.4 h.

Q: What about the Papp [7] of the same compound?
A: Its Papp is 21 ×10⁻⁶ cm/s.

Q: Which Ki [1] does the source give for COc1cc(C(=O)NC2(C(=O)N[C@H](C)c3ccc(-n4nc(C5CC5)c5ccccc54)cc3F)CC2)on1 here?
A: The Ki was over 10 µM.

Q: For C[C@@H](NC(=O)C1(NC(=O)c2cncc(F)c2)CC1)c1ccc(-n2nc(Cl)c3ccccc32)cc1F, which Ratio [4] is on record?
A: The Ratio was 7.5.

Q: And the Papp [7]?
A: Its Papp is 24 ×10⁻⁶ cm/s.

Q: What does the source list for COc1cc(C(=O)NC2(C(=O)N[C@H](C)c3ccc(-n4nc(Cl)c5ccccc54)cc3F)CC2)on1?
A: half-life [2]: 3.1 h; bioavailability [3]: 49%; Ratio [4]: 1.6; clearance [5]: 1.3 mL/min/kg; half-life [6]: 20.8 h; Ki [1]: > 10 µM; Papp [7]: 26 ×10⁻⁶ cm/s; clearance [8]: 5.3 mL/min/kg

Q: Which half-life [2] does the source give for COc1cncc(C(=O)NC2(C(=O)N[C@H](C)c3ccc(-n4nc(Cl)c5ccccc54)cc3F)CC2)c1 here?
A: Its half-life is 0.7 h.

Q: What about the bioavailability [3] of the same compound?
A: Its bioavailability is 6%.

Q: And the Ratio [4]?
A: The Ratio was 5.3.

Q: And the clearance [5]?
A: The clearance was 5.5 mL/min/kg.

Q: And the half-life [6]?
A: The half-life was 2.3 h.

Q: And the Papp [7]?
A: Its Papp is 21 ×10⁻⁶ cm/s.

Q: What about the clearance [8] of the same compound?
A: Its clearance is 7.8 mL/min/kg.

Q: Which results are given for COc1ncc(C(=O)NC2(C(=O)N[C@H](C)c3ccc(-n4nc(Cl)c5ccccc54)cc3F)CC2)s1?
A: half-life [2]: 8.3 h; bioavailability [3]: 13%; Ratio [4]: 1.8; clearance [5]: 1.7 mL/min/kg; half-life [6]: 8.3 h; Papp [7]: 14 ×10⁻⁶ cm/s; clearance [8]: 12.7 mL/min/kg

Q: With C[C@@H](NC(=O)C1(NC(=O)c2cncc(Cl)c2)CC1)c1ccc(-n2nc(Cl)c3ccccc32)cc1F as the compound, how does the Ratio [4] read?
A: Its Ratio is 2.5.

Q: And the clearance [5]?
A: The clearance was 3.1 mL/min/kg.

Q: What about the half-life [6] of the same compound?
A: The half-life was 6 h.

Q: And the Papp [7]?
A: Its Papp is 15 ×10⁻⁶ cm/s.

Q: With COc1cc(C(=O)NC2(C(=O)N[C@H](C)c3ccc(-n4nc(C#N)c5ccccc54)cc3F)CC2)on1 as the compound, how does the Ki [1] read?
A: The Ki was over 10 µM.

Q: With Cc1ncsc1C(=O)NC1(C(=O)N[C@H](C)c2ccc(-n3nc(Cl)c4ccccc43)cc2F)CC1 as the compound, how does the Stability [9] read?
A: The Stability was “Unstable”.

Q: For C[C@@H](NC(=O)C1(NC(=O)c2cncc(Cl)n2)CC1)c1ccc(-n2nc(Cl)c3ccccc32)cc1F, which half-life [2] is on record?
A: Its half-life is 1.6 h.

Q: What about the Ratio [4] of the same compound?
A: Its Ratio is 1.8.

Q: What about the clearance [5] of the same compound?
A: The clearance was 10.5 mL/min/kg.

Q: What about the half-life [6] of the same compound?
A: Its half-life is 15.1 h.

Q: And the Papp [7]?
A: The Papp was 24 ×10⁻⁶ cm/s.

Q: What about the clearance [8] of the same compound?
A: Its clearance is 105 mL/min/kg.

Q: With COc1cc(C(=O)NC2(C(=O)N[C@H](C)c3ccc(-n4nc(OC)c5ccccc54)cc3F)CC2)on1 as the compound, how does the Ki [1] read?
A: The Ki was over 10 µM.

Q: With COc1cc(C(=O)NC2(C(=O)N[C@H](C)c3ccc(-n4ncc5ccccc54)cc3F)CC2)on1 as the compound, how does the Ki [1] read?
A: Its Ki is over 10 µM.

Q: With C[C@@H](NC(=O)C1(NC(=O)c2cncnc2)CC1)c1ccc(-n2nc(Cl)c3ccccc32)cc1F as the compound, how does the Ratio [4] read?
A: Its Ratio is 5.9.

Q: What about the Papp [7] of the same compound?
A: The Papp was 24 ×10⁻⁶ cm/s.
